Data: patent US6602690B2, “Process for production of dihomo-γ-linolenic acid and lipid containing same” (Suntory, Ltd., priority 1991, dated 2003)

Legend:
[1] = test system: Mortierella alpina IFO 8568; experiment: Culturing of Mortierella alpina IFO 8568 with sesamin-containing soybean oil (Example 5, Comparative Example); type: cell-based; conditions: strain IFO 8568; soybean oil with 15% by weight sesamin, 0.5 ml at start and after 24 hours per 100 ml; 28° C., 7 days
Experimental: (§1) 100 ml each of a medium (pH 6.0) containing 4% glucose and 1% yeast extract was put into 4 Erlenmeyer flasks having a volume of 500 ml, and 0.5 ml each of soybean oil in which sesamin (2,6-bis-(3,4-methylenedioxyphenyl)-cis-3,7-dioxabicyclo[3,3,0]octane) had been dissolved to a sesamin concentration of 15% by weight was added to 2 flasks, and 0.5 ml each of soybean oil was added 2 other flasks, and the flasks were sterilized at 120° C. for 20 minutes.
(§2) Mortierella alpina IFO 8568 (Comparative Example) was added to two different media, and the mutant SAM 1860 (Example) was add to other different media.
(§3) The strains were cultured on a reciprocating shaker (110 rpm) at 28° C. for 7 days. After 24 hours from the start of culturing, 0.5 ml each of the sesamin-containing soybean oil was added to the media to which the sesamin-containing soybean oil had been added, and 0.5 ml each of soybean oil was added to the media to which soybean oil had been added. After culturing, a fatty acid methyl ester preparation was analyzed by gas chromatography as described in Example 1.

[2] = test system: mutant SAM 1860; experiment: Culturing of mutant SAM 1860 with sesamin-containing soybean oil (Example 5); type: cell-based, Mortierella alpina
Experimental: as §1, §2, §3

[3] = test system: mutant Mortierella alpina SAM 1860; experiment: Culturing of mutant Mortierella alpina SAM 1860 in medium with added substrate (Example 3), fatty acid methyl esters analysed by gas chromatography; type: cell-based; conditions: 0.5% additive in medium with 2% glucose, 1% yeast extract, 0.2% Tween 20; 28° C., 7 days
Experimental: These cells were extracted with a solvent of one phase chloroform/methanol/water according to Bligh & Dyer extraction method to obtain total lipids in an amount of 505 mg from the strain IFO 8568, and an amount of 530 mg from the mutant SAM 1860. These lipids were subjected to methyl-esterification using anhydrous methanol/hydrochloric acid (95:5) at 50° C. for 3 hours, and the resulting fatty acid methyl esters were extracted to obtain 417 mg of a total fatty acid methyl ester preparation from the strain IFO 8568, and 454 mg of a total fatty acid preparation from the mutant SAM 1860. The fatty acid methyl ester preparations were analyzed by gas chromatography.
20 ml of a medium (pH 6.0) containing 2% glucose; 1% yeast extract; 0.2% Tween 20; and 0.5% hydrocarbon, sodium salt of fatty acid, fatty acid ester, or fat or oil, was put into a 100 ml Erlenmeyer flask, and autoclaved at 120° C. for 20 minutes.
A mutant Mortierella alpina SAM 1860 was added to each flask, and cultured on a reciprocating shaker (110 rpm) at 28° C. for 7 days. For the resulting cell preparations, fatty acid methyl esters were analyzed by gas chromatography as described in Example 1.

[4] = Example 5 cultures (Table 4), strain not specified

SMILES	Ratio of DGLA:ARA [1]	effect of addition on the amount of dry cells [2, 4]	effect of addition on the amount of total fatty acids produced [2, 4]	Ratio of DGLA:ARA ([2]; mutant SAM 1860, soybean oil with 15% by weight sesamin, 0.5 ml at start and after 24 hours per 100 ml, 28° C., 7 days)	ARA [3] [g/L]	DGLA [3] [g/L]	Dry cells [3] [g/L]
c1cc2c(cc1[C@H]1OC[C@H]3[C@@H]1CO[C@@H]3c1ccc3c(c1)OCO3)OCO2 [sesamin, 2,6-bis-(3,4-methylenedioxyphenyl)-cis-3,7-dioxabicyclo[3,3,0]octane]	≤ 1.17	did not effect	did not effect	12.3	–	–	–
CCCCCCCCCCCCCCCC [Hexadecane]	–	–	–	–	0.55	1.89	18.1
CCCCCCCC/C=C\CCCCCCCC(=O)OC [Methyl oleate]	–	–	–	–	0.56	1.99	18.1
CCCCC/C=C\C/C=C\CCCCCCCC(=O)OC [Methyl linoleate]	–	–	–	–	0.60	2.15	18.7
CCCCCCCCCCCCCCCCCC [Octadecane]	–	–	–	–	0.50	1.80	18.3
CCCCC/C=C\C/C=C\CCCCCCCC(=O)[O-].[Na+] [Sodium linoleate]	–	–	–	–	0.49	1.40	14.8
CCCCCCCC/C=C\CCCCCCCC(=O)[O-].[Na+] [Sodium oleate]	–	–	–	–	0.48	1.40	15.5
